# Assay results reported in patent publication US5244916A, “Inhibition of respiratory burst using posttranslational modification inhibitors” (The Scripps Research Institute, priority 1992, dated 1993).
# How the values were obtained:
# [1] = system: NADPH oxidase; test: Cell-free oxidase system with compactin included in the assay cuvette; type: biochemical; conditions: 10 μM compactin in the assay cuvette
# Description: To assess O2 --formation using HL-60 membrane and cytosol, the cell-free system of Curnutte, et al. (Curnutte, et al., J. Biol. Chem. 262: 5563-5569 (1987); Curnutte, et al.,m J. Biol. Chem. 262: 6450-6452 (1987)) was utilized. Briefly, HL-60 membrane pellet (50-60μg) or human neutrophil membrane (6.35×10^6 cell equivalents) was added to a cuvette containing 100 μM cytochrome c (type III, Sigma Chemical Co., St. Louis, MO), 6.25 mM MgCl2, 93 mM KCl, 2.8 mM NaCl, 9.3 mM Pipes pH 7.3, 0.8mM ATP, 0.16 mM NADPH, 10 μM GTPgammaS, 225 μg HL-60 cytosol, or 250 μg ([…]; cell equivalents) of human neutrophil cytosol and ±300μg/ml SOD (Sigma Chemical Co., St. Louis, MO). After a three-minute equilibration at 25° C., the formation of O2 --was initiated by the addition of 100 μM SDS. O2 --generation was monitored continuously as the SOD-sensitive reduction of cytochrome c at 550 nm. Human neutrophil plasma membranes (gamma-GSP) and cytosol (GSS) were prepared as described in (Curnutte, et al., suora (1987)).
# Treatment of peripheral blood neutrophils with 10 μM compactin for up to two hours produced no effect upon the ability of these cells to support a respiratory burst in response to FMLP. […] It seems unlikely that both compounds would randomly produce similar nonspecific toxic effects on the NADPH oxidase.
# [2] = system: NADPH oxidase; test: Cell-free O2- formation by subcellular fractions from compactin-treated HL-60 cells, complemented with human neutrophil fractions, SDS-initiated; type: biochemical; conditions: for Rate of O2 formation / Rate, percent of respective untreated HL-60 sample: 10 μM
# Description: The cells were then pelleted and resuspended in 10 mM Pipes pH 7.3, 100 mM KCl, 3 mM NaCl, 1 mM ATP, 3.5mM MgCl2 (Relax buffer) plus 100U aprotonin/ml, 1 mM PMSF, and 0.34M sucrose to a final concentration of about 1×10^8 /ml. […] Louis, MO), 6.25 mM MgCl2, 93 mM KCl, 2.8 mM NaCl, 9.3 mM Pipes pH 7.3, 0.8mM ATP, 0.16 mM NADPH, 10 μM GTPgammaS, 225 μg HL-60 cytosol, or 250 μg ([…]; cell equivalents) of human neutrophil cytosol and ±300μg/ml SOD (Sigma Chemical Co., St. Louis, MO). After a three-minute equilibration at 25° C., the formation of O2 --was initiated by the addition of 100 μM SDS. O2 --generation was monitored continuously as the SOD-sensitive reduction of cytochrome c at 550 nm. Human neutrophil plasma membranes (gamma-GSP) and cytosol (GSS) were prepared as described in (Curnutte, et al., suora (1987)). […] To localize the compactin-sensitive factor required for NADPH oxidase activity to either the cytosol, membrane, or both, subcellular fractions from control or compactin-treated differentiated HL-60 cells were prepared. The membrane fraction and cytosol from the cells were then analyzed using the cell-free NADPH oxidase system. […] HL-60 cells were treated ±10 μM compactin, as described herein. Untreated cytosol/membrane and compactin cytosol/membrane, etc., refer to the fractions obtained from these cells. Values are the result of duplicate determinations within each experiment. Values in parentheses represent the percent of the rate obtained for the respective untreated HL-60 sample. Whether the inhibited factor(s) was present in the membrane fraction or cytosol was determined via performing complementation experiments using cytosol or membranes from normal human neutrophils. Data from these experiments is illustrated above in Table 3 and in FIG. 2. FIG. 2 illustrates complementation analysis of O2 -formation by control versus compactin-treated HL-60 cells. O2 --formation was analyzed in a cell-free assay as described in the Examples. Line A represents untreated HL-60 membrane +neutrophil GSS; line B represents compactin-treated HL-60 membrane+neutrophil GSS; line C represents untreated HL-60 cytosol+neutrophil gamma GSP; line D represents compactin-treated HL-60 cytosol+neutrophil gamma GSP.
# [3] = Exp. 1, compactin cytosol + compactin membrane
# [4] = Exp. 1, compactin cytosol + neutrophil membrane
# [5] = Exp. 1, neutrophil cytosol + compactin membrane
# [6] = Exp. 2, compactin cytosol + compactin membrane
# [7] = Exp. 2, compactin cytosol + neutrophil membrane
# [8] = Exp. 2, neutrophil cytosol + compactin membrane
# [9] = Exp. 3, compactin cytosol + neutrophil membrane
# [10] = Exp. 3, neutrophil cytosol + compactin membrane
compound,measurement,setting,value
CC[C@H](C)C(=O)O[C@H]1CCC=C2C=C[C@H](C)[C@H](CC[C@@H]3C[C@@H](O)CC(=O)O3)[C@H]21 [compactin],"inhibition of O2- formation, cell-free",[1],did not inhibit
same,"rate and extent of the burst, fractions from compactin-pretreated cells","[2]; 10 μM compactin, compactin cytosol + compactin membrane, 100 μM SDS",less than 10 % of control values
same,Rate of O2 formation,[2]; [3],0.1 nmol/min
same,"Rate, percent of respective untreated HL-60 sample",[2]; [3],1%
same,Rate of O2 formation,[2]; [4],1.1 nmol/min
same,"Rate, percent of respective untreated HL-60 sample",[2]; [4],33%
same,Rate of O2 formation,[2]; [5],1.9 nmol/min
same,"Rate, percent of respective untreated HL-60 sample",[2]; [5],95%
same,Rate of O2 formation,[2]; [6],0.4 nmol/min
same,"Rate, percent of respective untreated HL-60 sample",[2]; [6],5%
same,Rate of O2 formation,[2]; [7],1.5 nmol/min
same,"Rate, percent of respective untreated HL-60 sample",[2]; [7],37%
same,Rate of O2 formation,[2]; [8],2.6 nmol/min
same,"Rate, percent of respective untreated HL-60 sample",[2]; [8],100%
same,Rate of O2 formation,[2]; [9],2.4 nmol/min
same,"Rate, percent of respective untreated HL-60 sample",[2]; [9],47%
same,Rate of O2 formation,[2]; [10],4.0 nmol/min
same,"Rate, percent of respective untreated HL-60 sample",[2]; [10],98%
same,rate of O2- formation relative to untreated HL-60 cytosol,[2]; compactin cytosol + neutrophil membrane,about one-third
same,lag period after addition of SDS,"[2]; compactin cytosol + neutrophil membrane, FIG. 2",marked increase
same,rate of O2- formation with membrane from compactin-treated cells,"[2]; compactin membrane + neutrophil cytosol, versus untreated",essentially identical
same,ability of cytosol to support oxidative response,[2]; cytosol from compactin-treated cells,largely defective
same,ability of membrane fraction to support respiratory burst,[2]; membrane from compactin-treated cells,fully support a normal respiratory burst
